# Source: patent publication US5693608A, “Method of administering a biologically active substance” (Bechgaard International Research and Development A/S, priority 1990, dated 1997)
# “Also recorded” adds a separate entry of the source.
# Tests used:
# [1] = test system: blood glucose level; test: Blood glucose after intranasal glucagon in hypoglycaemic rabbits (Example 5); assay type: in vivo, New Zealand White rabbits
# Protocol: 4 mg human glucagon in 100 μl phosphate buffer (pH 4) containing 5% GF was applied into both nostrils (50 μl into each) of 5 sitting hypoglycaemic New Zealand White rabbits, weighing about 3 kg. The formulation was prepared by dissolving glucagon in a 7 mM phosphate buffer (pH 2.5), adjusting the pH to 4.0 with 0.1N sodium hydroxide and finally 5% glycofurolum 75 was added. The rabbits were made hypoglycaemic by subcutaneous injection of […] insulin one hour prior to the experiment. Blood samples were continuously withdrawn from the marginal ear vein for blood glucose determination.
# [2] = test system: rabbit nasal cavity; test: Acute toxicological study, rabbit nasal cavity 10 minutes after intranasal application; assay type: in vivo; conditions: for Microscopic Observations (Left Cavity): Table 8, individual rabbit
# Protocol: This study was conducted in order to observe acute changes in the rabbit nasal cavity after a single dose of vehicle in each nasal cavity.
# 16 rabbits were randomized into 4 groups of 4 rabbits each. 3 groups received a single intranasal application of one of the test vehicles, 50 μl into each nasal cavity. Each rabbit received only one test compound. One group served as a control receiving the same volume of isotonic sodium chloride saline. 10 minutes after application the rabbits were sacrificed and bled. The right nasal cavity was then opened and evaluated macroscopically. The evaluator was blind as to the dosing scheme. The left nasal cavity was dissected and fixed in neutral buffered formalin for histological evaluation.
# [3] = intranasal, adults; cited from earlier work
# [4] = test system: blood glucose level; test: Blood glucose after intranasal insulin (Example 4); assay type: in vivo, New Zealand White rabbits; conditions: rabbits
# Protocol: 0.33 mg zinc-free (monomeric) human insulin in 50 μl 12.5 mM phosphate buffer (pH 7.4) containing 5% glycofurol 75 was applied into one nostril of 5 sitting New Zealand White rabbits, weighing about 3 kg. Blood samples of 50 μl were withdrawn from the marginal ear vein after 0, 15, 30, 60 and 120 minutes, and blood glucose level was determined.
# [5] = Volume of aqueous solution needed to dissolve clinically relevant dose; assay type: physicochemical
# [6] = test system: rabbits; test: Pharmacodynamic response, enhanced by GF (Example 3); conditions: intranasal 0.25 mg clonazepam in 100 μl
# Protocol: The pharmacodynamic response was tested in New Zealand White rabbits after application of 50 μl of 2.5 mg clonazepam/ml vehicle into each nostril while they were in sitting position. […] Clonazepam was dissolved by ultrasonification.
# [7] = Plasma clonazepam after intranasal administration in vehicle B (Example 2); assay type: in vivo, New Zealand White rabbits
# Protocol: 50 μl of his preparation was administered into each nasal cavity of male New Zealand White rabbits, held in a supine position during and 1 minute after the application. An Eppendorph pipette was used for the application.
# [8] = test system: children; conditions: intranasal, 45 children; cited from earlier work
# [9] = nasal gel, rats; cited from earlier work
compound,measurement,setting,value
glucagon: human glucagon in phosphate buffer (pH 4) containing 5% GF,"pronounced biological response (blood glucose), time after application",[1],15-30 minutes
"CC(O)CO (stereo not shown) [Propylene glycol (PG), propylene glycol]",Microscopic Observations (Left Cavity),[2]; Level 1,Edema and congestion
same,Microscopic Observations (Left Cavity),[2]; Level 2,Congestion
same,Microscopic Observations (Left Cavity),[2]; Level 3,Lymphoid aggregates; also recorded: Dilatation of venules
same,Microscopic Observations (Left Cavity),[2]; Level 4,Area of chronic inflammation
same,Microscopic Results (Left side),"[2]; Table 9 summary, 10 minutes after application, per animal",Focal haemorrhage
CN1C(=O)CN=C(c2ccccc2)c2cc(Cl)ccc21 [diazepam],peak concentration with reference to i.v. administration,[3],about 27%
O=C1Nc2ccc(Cl)cc2C(c2ccccc2Cl)=NC1O (stereo not shown) [lorazepam],time to peak concentration,[3],2.3 h
insulin: zinc-free (monomeric) human insulin in phosphate buffer (pH 7.4) containing 5% glycofurol 75,"pronounced biological response (blood glucose), time after application",[4],15-30 minutes
O=C1CN=C(c2ccccc2Cl)c2cc([N+](=O)[O-])ccc2N1 [clonazepam],volume of aqueous solution to dissolve clinically relevant dose,[5],> 10 mL
same,time to pharmacodynamic response,[6],less than 2 minutes
same,plasma concentration versus i.v. injection (in words),"[7]; 0.5 mg, at about 2 minutes","about the same or even higher, at about 2 minutes, than for an i.v. injection"
same,"plasma concentration after 2 1/2 minutes, % of i.v. (CpL(21/2 min))",[7]; FIG. 1,about 100%
same,Tmax,"[7]; rabbit, plasma, 0.5 mg, FIG. 1, read-out: peak clonazepam plasma concentration (tmax)",2 to 3 min
Cc1ncc2n1-c1ccc(Cl)cc1C(c1ccccc1F)=NC2 [midazolam],adverse reaction (in words),[8],coughing and sneezing with expulsion of part of the dose
COC(=O)C1=C(C)NC(C)=C(C(=O)OC)C1c1ccccc1[N+](=O)[O-] [nifedipine],plasma peak concentration compared with intravenous administration,[9],≤ 10%
